PubChem BioAssay AID743417 (Broad Institute, 2014)
Records with an inconclusive call do not appear. Calls of active or inactive are those of the source.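 Rule for the calls: active = compounds lowering the luciferase signal with a fitted half-maximal dose at most twice their top valid dose (cut at about 30 µM in these data); inconclusive = flat fits with moderate signal loss, or poor fits; inactive = the rest.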

System: Clone20 osteoblast Shn3 3'UTR firefly luciferase, 24 h
Assay: Shn3 3'UTR reporter inhibitors, dose response, cell-based, Clone20 osteoblasts, luminescence, dry powder, set 2 (AID 743417)

Row | SMILES | AC50
1 | CCOC(=O)CC1CCCCN1C(=O)c1cc(COc2cccc3cnccc23)on1 (stereo unspecified) | 0.713 µM
2 | C=CCn1c(SCC(=O)c2[nH]c(C)c(C(=O)OC)c2C)nc2scc(-c3ccc(OC)c(OC)c3)c2c1=O | 2.01 µM
3 | CCN1CCN(Cc2ccc(NC(=O)c3ccc(C)c(/C=C/c4cnc(Nc5cc(N6CCNCC6)nc(C)n5)cn4)c3)cc2C(F)(F)F)CC1 | 9.56 µM
4 | CCOc1ccc(OCc2cccc(C(=O)O)c2)cc1 | 0.649 µM
5 | CCOc1cc(N2CCOCC2)c(OCC)cc1NC(=O)COc1cccc2cccnc12 | 2.41 µM
6 | O=C(O)c1cccc(COc2ccc(CO)cc2Cl)c1 | 1.04 µM
7 | CCOC(=O)C1(Cc2cccc(OC)c2)CCN(C/C=C/c2ccc(OC)cc2)CC1 | 4.75 µM
8 | CCCCN1C2=NCCCN2c2cc(C)c(C)cc21 | 0.803 µM
9 | O=C(Nc1cccc(F)c1)c1cc(S(=O)(=O)NCCC2=CCCCC2)ccc1F | 4.16 µM
10 | CC(=O)OC[C@]12CC[C@H]3[C@@](C)(CC[C@H]4C(C)(C)CCC[C@]34C)[C@@H]1CC(C1=CC(=O)OC1O)O2 (stereo partly specified) | 0.634 µM
11 | Cc1cccc(C)c1NC(=O)CN(C)C(=O)c1cccc(S(=O)(=O)N2CCN(c3ccc(F)cc3)CC2)c1 | 2.2 µM
12 | N#Cc1cc(-c2ccccc2)[nH]c1-c1nccc2ccccc12 | 3.42 µM
13 | Cc1sc2ncnc(N3CCN(CCOc4ccc(Cl)cc4)CC3)c2c1C | 1.35 µM
14 | Oc1c(C(Nc2ccccn2)c2ccccn2)ccc2cccnc12 (stereo unspecified) | 4.36 µM
15 | Cc1ccc(-c2nn(C(C)(C)C)c3ncnc(N)c23)cc1 | 5.89 µM
16 | COc1ccc(CNC(=O)C(C)n2ccc3cc(S(=O)(=O)N4CCCCCC4)ccc32)cc1 (stereo unspecified) | 0.518 µM
17 | CC(=O)c1ccc(NC(=O)C(C)OC(=O)/C=C/c2ccco2)cc1 (stereo unspecified) | 9.12 µM
18 | O=C(NNc1ccnc2cc(Cl)ccc12)C1CCCCC1 | < 0.26 µM
19 | OC(c1cc(-c2ccc(C(F)(F)F)cc2)nc(C(F)(F)F)c1)C1CCCCN1 (stereo unspecified) | 4.73 µM
20 | CC(C)C(=O)N1CCN(c2ccc(NC(=O)c3ccc([N+](=O)[O-])o3)cc2Cl)CC1 | 0.954 µM
21 | CCOC(=O)C1CCN(C(=O)c2sc3nc(C)nc(N4CCC(C)CC4)c3c2C)CC1 | 5.26 µM
22 | Cc1ccc2nc(NNC(=O)c3ccc(S(=O)(=O)N4CCc5ccccc5C4)cc3)sc2c1 | 1.62 µM
23 | CCn1nc(/C=C/c2ccccc2)nc2c(=O)n(C)c(=O)nc1-2 | 2.57 µM
24 | COc1ccc(OC)c(NC(=O)CN(Cc2ccc(F)cc2)C2CCCCC2)c1 | 4.99 µM
25 | Cc1ccc(NC(=O)CN(C)CC(=O)Nc2cccc(F)c2)cc1[N+](=O)[O-] | 0.57 µM
26 | COc1cc(NS(C)(=O)=O)ccc1Nc1c2ccccc2nc2ccccc12 | 1.32 µM

Row | SMILES | AC50
27 | CCc1ccc(O)c(CNCCNCc2cc(CC)ccc2O)c1 | 1.38 µM
28 | CCOC(=O)Cn1c(S(=O)(=O)Cc2ccccc2Cl)nc(-c2ccccc2)c1-c1ccccc1 | 9.29 µM
29 | COc1ccccc1N(C)S(=O)(=O)c1ccc(C(=O)Nc2cc(F)ccc2C)cc1 | 13.8 µM
30 | COc1cc2ncnc(N[C@H](C)c3ccccc3)c2cc1OC | 8.72 µM
31 | Cn1nc(-c2ccc(Cl)cc2)c2cc(C(=O)N3CCN(c4ccccn4)CC3)sc21 | 4.02 µM
32 | COCCN(C(=O)COC(=O)C1CCC(C(C)(C)C)CC1)c1c(N)n(Cc2ccccc2)c(=O)[nH]c1=O (stereo unspecified) | 5.15 µM
33 | O=C(CN(C(=O)c1ccc(Cl)cc1)C1CCCCC1)Nc1ccc(Cl)c([N+](=O)[O-])c1 | 8.11 µM
34 | COc1cc(OC)c(OC)cc1/C=C1\CC(C)C/C(=C\c2cc(OC)c(OC)cc2OC)C1=O (stereo unspecified) | 3.22 µM
35 | COc1ccc(CC(=O)Nc2cccc(S(=O)(=O)N3CCCCCC3)c2)cc1OC | 2.27 µM
36 | COc1ccc(-c2cc(C(F)(F)F)nc(S(C)(=O)=O)n2)cc1 | 4.46 µM
37 | CC(=O)N1CCc2c(sc(NC(=O)c3ccc([N+](=O)[O-])o3)c2C(N)=O)C1 | 1.85 µM
38 | O=C(c1cc(COc2ccc3ncccc3c2)on1)N1CCCCCC1 | 0.703 µM
39 | COc1ccc(C(NC(C)=O)c2cc(Cl)c3cccnc3c2O)cc1 (stereo unspecified) | 1.61 µM
40 | Nc1nonc1C(=O)NCCNCc1cc(Br)ccc1OCc1ccc(F)cc1 | 3.74 µM
41 | CC(=O)c1cccc(-c2csc3ncnc(Sc4nnnn4C)c23)c1 | 4.72 µM
42 | O=C(Nc1ccc(S(=O)(=O)N2CCN(Cc3ccccc3)CC2)cc1)c1cnccn1 | 1.65 µM
43 | CCn1cc(CN(C)S(=O)(=O)c2ccc3ccccc3c2)c(C)n1 | 1.56 µM
44 | COc1ccc(-c2csc(NC(=O)C3CCN(c4ncnc5sc(C)c(C)c45)CC3)n2)cc1OC | 1.42 µM
45 | O=C1N(c2ccccc2)C[C@@H]2C[C@@H](c3cc4ccccc4o3)N3CCC[C@@]123 | 0.536 µM
46 | CCOc1cc(CNCCCN2CCOCC2)cc(Br)c1OCc1ccccc1Cl | 9.31 µM
47 | NS(=O)(=O)c1ccc(CCNc2nn3c(-c4cccc(OC(F)(F)F)c4)cnc3s2)cc1 | 3.93 µM
48 | O=[N+]([O-])c1ccc(O)c(-c2cc(C(F)(F)F)nc(-c3ccccc3)n2)c1 | 2.73 µM
49 | CCCCC(=O)NC(c1ccccc1Cl)c1ccc2cccnc2c1O (stereo unspecified) | 1.12 µM
50 | CCOC(=O)c1c2c(n(Cc3ccccc3)c1C)C(=O)C(=O)c1ccccc1-2 | 2.3 µM
51 | CCCCCCCCCCOC(=O)Cn1c(COc2ccc(OC)cc2)[n+](C)c2ccccc21 | 2.01 µM
52 | COC(=O)C12OCC34C(CC5C(C)=C(O)C(=O)CC5(C)C3C(O)C1O)OC(=O)C(OC(=O)/C=C(\C)C(C)C)C24 (stereo unspecified) | < 0.26 µM

Row | SMILES | AC50
53 | S=C(NCCc1ccccc1)Nc1cccc2cnccc12 | 0.922 µM
54 | CCc1ccc(-n2c(O)c(C=NCCN(CC)CC)c(=O)[nH]c2=O)cc1 | > 70 µM (inactive)
55 | CC(=O)Nc1ccc(Sc2ccc([N+](=O)[O-])o2)cc1 | 2.15 µM
56 | CCCC(=O)NC(c1ccc(Cl)cc1)c1ccc2cccnc2c1O (stereo unspecified) | 0.937 µM
57 | O=C(NNC(=O)C(c1ccccc1)c1ccccc1)c1ccccn1 | 2.87 µM
58 | Cc1ccc(NN2C(=O)C=C(c3ccc(Cl)cc3)C2=O)cc1 | 6.53 µM
59 | Cc1cccc(CSc2cccc3cccnc23)c1 | 2.54 µM
60 | Cc1ccc(S(=O)(=O)N2CCN(C(=O)C3CCN(c4ncnc5sc(C)c(C)c45)CC3)CC2)c(C)c1 | 2.12 µM
61 | COc1ccc(CCN2C(=O)CSC2=Nc2ccc(C(C)C)cc2)cc1OC | 4.49 µM
62 | COc1ccc(NS(=O)(=O)c2ccc(N3CCOCC3)c(N)c2)cc1 | 1.08 µM
63 | CCCCCCCSc1cc(OC)c(CCNC)cc1OC | 10.6 µM
64 | Cc1ccccc1C(=O)N1CCN(c2ccc(NC(=O)CSc3ccc(Cl)cc3)cc2)CC1 | 4.23 µM
65 | COc1cc(C)c(NC(=O)COc2cccc3c2OC(C)(C)C3)cc1OC | 7.06 µM
66 | CC(C)c1nnc(NC(=O)c2nc(S(=O)(=O)Cc3ccccc3)ncc2Cl)s1 | 0.876 µM
67 | CC(C)(C)NC(=O)NC(=O)CN1CCN(c2ccc(O)cc2)CC1 | 1.9 µM
68 | CCCCCCCN(c1ccccc1)[C@@H]1C[C@H]2CCCC(=O)N3CC[C@@H](C1)[C@@H]23 | 11.5 µM
69 | C=CCOC(=O)c1[nH]c2c(c1C)C(=O)CC(c1cc(OC)c(OC)c(OC)c1)C2 (stereo unspecified) | 1.83 µM
70 | c1ccc(CN=C(NCc2ccccc2)NCc2ccccc2)cc1 | 1.79 µM
71 | O=[N+]([O-])c1cccc(S(=O)(=O)NCc2ccncc2)c1 | 3.09 µM
72 | O=C(c1cc2sccc2n1Cc1ccc(F)cc1)N1CCN(c2nc3ccccc3s2)CC1 | 1.36 µM
73 | Cc1ccc(C(=O)/C=C/c2ccc(-c3ccc(C)cc3)o2)cc1 | 2.79 µM
74 | CCOC(=O)c1c(-c2ccccc2)oc2cc(CN(C)C)c(O)c(CN(C)C)c12 | 7.81 µM
75 | CC(=O)NC(c1ccc(Cl)cc1)c1ccc2cccnc2c1O (stereo unspecified) | 0.299 µM
76 | CCN(CC)S(=O)(=O)c1ccc(S(=O)(=O)Nc2c(C)nn(C)c2C)cc1 | 2.24 µM
